Legend:
[1] = system: AAD-1 (v3) (pDAB721) T2 tobacco plants; assay: Auxinic herbicide cross tolerance of stacked tobacco, AAD-1 T2; assay type: in vivo, Nicotiana tabacum
Experimental: (§1) Homozygous AAD-12 (v1) (pDAS1580) and AAD-1 (v3) (pDAB721) plants (see PCT/US2005/014737 for the latter) were both reciprocally crossed and F1 seed was collected. The F1 seed from two reciprocal crosses of each gene were stratified and treated 4 reps of each cross were treated under the same spray regimen as used for the other testing with one of the following treatments: 70, 140, 280 g ac/ha fluroxypyr (selective for the AAD-12 (v1) gene); 280, 560, 1120 g ae/ha R-dichloroprop (selective for the AAD-1 (v3) gene); or 560, 1120, 2240 g ae/ha 2,4-D DMA (to confirm 2,4-D tolerance). Homozygous T2 plants of each gene were also planted for use as controls. Plants were graded at 3 and 14 DAT.

[2] = system: AAD-12 (v1) T1 tobacco plants; assay: Cross tolerance of T1 tobacco to phenoxy and pyridyloxy auxin herbicides; assay type: in vivo, Nicotiana tabacum
Source text: Two to four T0 individuals surviving high rates of 2,4-D and fluroxypyr were saved from each event and allowed to self fertilize in the greenhouse to give rise to T1 seed. The T1 seed was stratified, and sown into selection trays much like that of Arabidopsis (Example 7.4), followed by selective removal of untransformed nulls in this segregating population with 560 g ai/ha glufosinate (PAT gene selection). Survivors were transferred to individual 3-inch pots in the greenhouse. These lines provided high levels of resistance to 2,4-D in the T0 generation. Improved consistency of response is anticipated in T1 plants not having come directly from tissue culture. These plants were compared against wildtype KY160 tobacco. All plants were sprayed with a track sprayer set at 187 L/ha. The plants were sprayed from a range of 140-2240 g ac/ha 2,4-D dimethylamine salt (DMA), 70-1120 g ace/ha triclopyr or 35-560 g ae/ha fluroxypyr. All applications were formulated in water. Each treatment was replicated 2-4 times. Plants were evaluated at 3 and 14 days after treatment. Plants were assigned injury rating with respect to stunting, chlorosis, and necrosis. The T1 generation is segregating, so some variable response is expected due to difference in zygosity.

[3] = system: AAD-12 (v1) canola events 3759(20)018.001 and 3759(18)030.001; assay: Field tolerance of canola, AAD-12 events; assay type: in vivo, Brassica napus
Experimental: Field level tolerance trial was conducted on two AAD-12 (v1) events 3759(20)018.001 and 3759(18)030.001 and a wild-type canola (Nex710) in Fowler, Ind. The experimental design was a randomized complete block design with 3 replications. Herbicide treatments were 2,4-D (dimethylamine salt) at 280, 560, 1120, 2240 and 4480 g ac/ha, triclopyr at 840 g ae/ha, fluroxypyr at 280 g ae/ha and an untreated control. Within each herbicide treatment, single 20 ft row/event for event 3759(18)030.0011, 3759(18)018.001 and wild-type line (Nex710) were planted with a 4 row drill on 8 inch row spacing. Herbicide treatments were applied when canola reached the 4-6 leaf stage using compressed air backpack sprayer delivering 187 L/ha carrier volume at 130-200 kpa pressure. […]

[4] = system: Roundup Ready (RR) control corn hybrid (2P782); assay: Field tolerance of corn: visual injury and brace root injury, control hybrid; assay type: in vivo, Zea mays
Experimental: Seeds were planted with cone planter on 40-inch row spacing at Wayside and 30 inch spacing at Fowler. […] Herbicide treatments were 2,4-D (dimethylamine salt) at 1120, 2240 and 4480 g ae/ha, triclopyr at 840 g ae/ha, fluroxypyr at 280 g ae/ha and an untreated control. The AAD-12 (v1) events contained the AHAS gene as a selectable marker. The F2 corn events were segregating so the AAD-12 (v1) plants were treated with imazethapyr at 70 g ae/ha to remove the null plants. Herbicide treatments were applied when corn reached the V6 stage using compressed air backpack sprayer delivering 187 L/ha carrier volume at 130-200 kpa pressure. Visual injury ratings were taken at 7, 14 and 21 days after treatment.

[5] = system: wildtype tobacco; assay: Auxinic herbicide cross tolerance of stacked tobacco, wildtype; assay type: in vivo, Nicotiana tabacum; settings: KY160 wildtype control
Experimental: as §1

[6] = system: AAD-12 (v1) tobacco lines (pDAS1580-[1]-018.001, pDAS1580-[1]-004.001, pDAS1580-[1]-020.016); assay: Field tolerance of tobacco, AAD-12 lines; assay type: in vivo, Nicotiana tabacum
Experimental: Field level tolerance trials were conducted on three AAD-12 (v1) lines (events pDAS1580-[1]-018.001, pDAS1580-[1]-004.001 and pDAS1580-[1]-020.016) and one wild-type line (KY160) at field stations in Indiana and Mississippi. Tobacco transplants were grown in the greenhouse by planting T1 seed in 72 well transplant flats (Hummert International) containing Metro 360 media according to growing conditions indicated above. The null plants were selectively removed by Liberty selection as previously described. The transplant plants were transported to the field stations and planted at either 14 or 24 inches apart using industrial vegetable planters. Drip irrigation at the Mississippi site and overhead irrigation at the Indiana site were used to keep plants growing vigorously.
The experimental design was a split plot design with 4 replications. The main plot was herbicide treatment and the sub-plot was tobacco line. The herbicide treatments were 2,4-D (dimethylamine salt) at 280, 560, 1120, 2240 and 4480 g ac/ha, triclopyr at 840 g ae/ha, fluroxypyr at 280 g ac/ha and an untreated control. Plots were one row by 25-30 ft. Herbicide treatments were applied 3-4 weeks after transplanting using compressed air backpack sprayer delivering 187 L/ha carrier volume at 130-200 kpa pressure. Visual rating of injury, growth inhibition, and epinasty were taken at 7, 14 and 21 days after treatment.

[7] = Fluroxypyr at 280 g ae/ha, 14 DAT

Nc1c(Cl)c(F)nc(OCC(=O)O)c1Cl [Fluroxypyr]
Average % injury 14 DAT ([1]; 70 g ae/ha): 40% | Average % injury 14 DAT ([1]; 140 g ae/ha): 60% | injury ([2]; 35-560 g ae/ha fluroxypyr): greatest injury | Average % Injury of Replicates 14 DAT ([2]; T1 1580(1)-004, 35 g ae/ha): 0% | Average % Injury of Replicates 14 DAT ([2]; T1 1580(1)-004, 140 g ae/ha): 0% | Average % Injury of Replicates 14 DAT ([2]; T1 1580(1)-004, 560 g ae/ha): 3% | Average % Injury of Replicates 14 DAT ([2]; T1 1580(1)-018, 35 g ae/ha): 8% | Average % Injury of Replicates 14 DAT ([2]; T1 1580(1)-018, 140 g ae/ha): 10% | Average % Injury of Replicates 14 DAT ([2]; T1 1580(1)-018, 560 g ae/ha): 18% | % Visual Injury at 14 DAT ([3]; AAD-12 event 3759(18)030.001, 280 GM AE/HA): 8 a % | % Visual Injury at 14 DAT ([3]; AAD-12 event 3759(20)018.001, 280 GM AE/HA): 7 a % | average injury ([3]; Fluroxypyr at 280 g ae/ha, 5DAT): 8% | % Visual Injury 14DAT ([4]; 2P782 control, 280 g ae/ha): 11% | brace root injury ([4]; Fluroxypyr at 280 g ae/ha): moderate brace root swelling and wandering | visual injury [4, 7]: 11% | Brace Root Injury Rating (0-10 scale) 28DAT ([4]; Wild-type NK603, 280 g ae/ha): 2 | Average % injury 14 DAT ([5]; 70 g ae/ha): 40% | Average % injury 14 DAT ([5]; 140 g ae/ha): 65% | average injury [6, 7]: 11% | Average % Injury across locations at 14 DAT ([6]; pDAS1580-[1]-004.001, 280 GM AE/HA): 11% | Average % Injury across locations at 14 DAT ([6]; pDAS1580-[1]-018.001, 280 GM AE/HA): 12% | Average % Injury across locations at 14 DAT ([6]; pDAS1580-[1]-020.016, 280 GM AE/HA): 11%
